Results reported in a compilation of properties of binary mixtures (doi:10.1021/acs.iecr.1c02970).

Assay: xn = mol fraction of the nth substance listed
Settings: 100 kPa, x2 = 0

O + CC[n+]1ccn(C)c1.CS(=O)(=O)[O-]
Settings | electrical conductivity [S/m] | speed of sound [m/s] | viscosity [mPa·s]
293.15 K | – | – | 1.002
303.15 K | 0.0001 | – | 0.797
313.15 K | 0.0002 | 1529.2 | 0.653
318.15 K | – | 1536.7 | –
343.15 K | 0.0018 | 1555.1 | 0.4039
353.15 K | 0.0023 | – | 0.3544
